Test results: patent EP3891153B1, “NAPHTHALIMIDOFURANS FOR APPLICATIONS IN MOLECULAR BIOLOGY” (Univerzita Karlova, 1. Lékarská Fakulta, priority 2018, dated 2020)

Test: UV/VIS and fluorescence studies (spectral properties of the probes in four solvents)
Format: physicochemical
Conditions: for fluorescence intensities: compared with probes 2 and 4 with pyranone motive; for Absorbance maxima (nm) / Emission maxima (nm): 1 µM or 0,1 µM
Procedure: Spectral properties of fluorescent probes 2, 4, 6, 8 and 10 (2 and 4 are for reference only) Spectral characteristics of probes were obtained by using a UV/VIS and fluorescence studies. The probes were measured in four solvents (DMSO, methanol, ethanol and phosphate buffer). Each LysoSers was at first dissolved in DMSO 1mM stock solution which was diluted to a final concentration 1 µM or 0,1 µM.
All prepared probes have absorption maximum in the ultraviolet range of 350-400 nm and emission maximum in the range of 400 to 450 nm. […] Table 1. Absorption and emission maxima of probes 2, 4, 6, 8 and 10 in different solvents (probes 2 and 4 are for reference only)

| Structure (SMILES) | fluorescence intensities | Absorbance maxima (nm) (solvent DMSO) | Emission maxima (nm) (solvent DMSO) | Absorbance maxima (nm) (solvent EtOH) | Emission maxima (nm) (solvent EtOH) | Absorbance maxima (nm) (solvent MeOH) | Emission maxima (nm) (solvent MeOH) | Absorbance maxima (nm) (solvent PBS) | Emission maxima (nm) (solvent PBS) |
| --- | --- | --- | --- | --- | --- | --- | --- | --- | --- |
| CCCCCCN1C(=O)c2cccc3c2c(cc2oc(=O)c(C(=O)NCCN(C)C)cc23)C1=O [Probe 2] | – | 379 | 440 | 388 | 448 | 387 | 442 | 389 | 448 |
| CN(C)CCNC(=O)c1cc2c(cc3c4c(cccc42)C(=O)N(C)C3=O)o1 [Probe 10] | higher fluorescence intensities | 377 | 435 | 365 | 410 | 372 | 420 | 377 | 431 |

Second part, the compound after the results:

| fluorescence intensities | Absorbance maxima (nm) (solvent DMSO) | Emission maxima (nm) (solvent DMSO) | Absorbance maxima (nm) (solvent EtOH) | Emission maxima (nm) (solvent EtOH) | Absorbance maxima (nm) (solvent MeOH) | Emission maxima (nm) (solvent MeOH) | Absorbance maxima (nm) (solvent PBS) | Emission maxima (nm) (solvent PBS) | Structure (SMILES) |
| --- | --- | --- | --- | --- | --- | --- | --- | --- | --- |
| higher fluorescence intensities | 373 | 424 | 376 | 422 | 373 | 421 | 373 | 429 | CCCCCCN1C(=O)c2cccc3c2c(cc2oc(C(=O)NCCN(C)C)cc23)C1=O [Probe 6] |
| – | 368 | 432 | 319 | 434 | 317 | 435 | 320 | 437 | CCCCCCN1C(=O)c2cccc3c2c(cc2cc(C(=O)NCCN(C)C)c(=O)oc23)C1=O [Probe 4] |
| higher fluorescence intensities | 368 | 416 | 341 | 415 | 341 | 416 | 360 | 428 | CCCCCCN1C(=O)c2cccc3c2c(cc2cc(C(=O)NCCN(C)C)oc23)C1=O [Probe 8] |
